Data: patent publication US20140227173A1, “CANCER TREATMENT WITH GAMMA-SECRETASE INHIBITORS” (The Johns Hopkins University, priority 2006, published 2014)
Entries after “also recorded” stand apart in the source; their conditions may differ.

Experiments:
MB2 = test: Nestin immunocytochemistry, nestin-positive fraction; format: cell-based; details: 2 μM, 48 hours
D283Med = test: Number of live cells (Guava Viacount); format: cell-based; details: 2 μM
Protocol: (§1) The fact that cultures grew 2-fold or more during the same time period that side population was essentially ablated by Notch pathway blockade provides additional support for the notion that medulloblatoma CSC are especially vulnerable to Notch signaling inhibition.
(§2) The DAOY, PFSK, D283 and D425 Med cell lines were obtained from the American Type Culture Collection. The low-passage MB line MB2 was derived from a tumor resected at Johns Hopkins Hospital. For treatment studies, cell were plated and allowed to grow overnight in MEM (Invitrogen, Carlsbad, Calif.) containing 10% FBS, then media was replaced the next morning with low serum (0.5% FBS) MEM containing GSI dissolved in DMSO. RNA and protein extractions, and all cell-based assays, were performed 48 hours after drug application unless otherwise noted. All experiments with error bars were performed in triplicate and shown as mean values with standard error unless otherwise noted. Cell mass was measured using CellTITER assays according to the manufacturer's instructions (Promega, Madison, Wis.). Cell number and viability were assessed using the Guava PCA and Viacount reagent according to instructions (Guava Technologies, Heyward, Calif.). Soft agar assays were performed as previously described (15) and scored either manually after 4 weeks or using as automated reader after 6 weeks. The constitutively active Akt stable cell line was made by transfecting DAOY cells with myristolated Akt (pCB6-IMy-Akt-HA) or control (pCB6+) plasmids (kind gifts from Susan J. Baker) and selecting and maintaining clones in 0.8 mg/ml G418. Soft agar assays were performed as previously described, with colonies counted using an automated reader (15).

D425Med = test: Number of live cells (Guava Viacount); format: cell-based; details: 2 μM
Protocol: as §1, §2

DAOY [1] = test: Number of live cells (Guava Viacount); format: cell-based; details: 2 μM
Protocol: as §1, §2

PFSK = test: Number of live cells (Guava Viacount); format: cell-based; details: 2 μM
Protocol: as §1, §2

Akt = Akt phosphorylation and cleaved Caspase 3 (Western blot) in DAOY medulloblastoma cells; format: cell-based
Protocol: (A) Increase of cleaved Caspase 3 and loss of Akt phosphorylation is induced by 0.4 uMor higher levels of GSI-18, while overall levels of Akt and GAPDH are unchanged in DAOY medulloblastoma cells. (B) Cell death in 2 uM GSI-18 is reduced in a representative subclone of DAOY expressing activated Akt as compare to vector transfected cells. (C) Loss of Akt phosphorylation and activation of Caspase3 cleavage is induced by 2 μM or higher levels of GSI-18, while overall levels of Akt and GAPDH are unchanged in GBM neurosphere cells.
It has previously been shown that Akt is a critical effector of Notch-regulated survival and growth outside the brain (26, 27). Therefore, it was examined whether Akt was also a mediator of the pro-survival and pro-growth effects of Notch in brain tumors. GSI-18 blocks the phosphorylation of Akt required for its activation at concentrations as low as 0.4 μM (FIG. 7F). […] Thus the pro-survival effects of Notch signaling in MB appear to be mediated at least in part by Akt.
Quantitative RT PCR for Notch1, Notch2 and Hes1 was performed as previously described (29), with all reactions normalized to actin (Applied Biosystems, Foster City, Calif.). Commercially available Assay on Demand Taqman primers and probes were used to measure mRNA for Nestin, Bmi1, Tuj1 and GABRA6. Western blots contained 20 μg of protein per lane on a 10% Tris-glycine SDS-PAGE gel (Invitrogen). […]

DAOY [2] = test: Xenograft initiation by pretreated cells injected subcutaneously in athymic (nude) mice; format: in vivo
Protocol: A clonogenic assay was used to determine whether cells capable of initiating anchorage-independent colonies were depleted by GSI-18. In vehicle-treated DAOY cultures, 2.9% of cells formed large colonies when seeded in soft agar (FIG. 7H). This number dropped to 0.26% when an equal number of viable cells were counted and seeded after 48 hours of treatment with GSI-18, and increased to 7.2% in the presence of constitutive Notch2 activation. Initiation of tumor xenografts was assayed next, a strategy used in several previous studies to examine the presence or absence of cancer stem cells (6-8). DAOY and DAOY:NICD2 cultures were treated with either 2 μM GSI-18 or vehicle alone, and the viable cells remaining after 48 hours counted using Trypan blue. 500,000 viable cells from each group were then injected subcutaneously in athymic (nude) mice. Large xenografts formed at the sites of all 12 control injections. […] To rule out the possibility that cells were alive but moribund following gamma-secretase inhibition, the experiment was repeated with cells counted after a recovery period.

[3] = Behavioral or physical changes in treated animals; format: in vivo, mice; details: 0.5 mg i.p. for five consecutive days
Protocol: As a test of the requirement for ongoing Notch activity during tumor engraftment, animals were treated with GSI-18 after subcutaneously injecting DAOY and DAOY:NICD2 cells into their left and right flanks. A treatment group of four mice received intraperitoneal injections containing 0.5 mg GSI-18 in DMSO for five consecutive days, beginning on the day of xenograft initiation, while the control group was treated with vehicle alone.

[4] = test system: GBM neurosphere line HSR-GBM1a; test: CD133 expression in GBM neurosphere culture; format: cell-based; details: 2 μM
Protocol: (A, B) CD133 is expressed in GBM neurosphere line HSR-GBM1a. (C) The total cell number was decreased upon GSI-18 treatment for 48 h in this line and in the subclones of the line. […] (E) Protein expression of Hes1, a Notch pathway target gene, was reduced upon GSI-18 treatment in GBM neurosphere cells.
It has been shown that the Notch signaling pathway regulates normal stem cells in the Central Neural System (CNS), and that GBMs contain cancer stem cells (CSCs) with higher Notch activity (Cancer Research, 64:7011-21, 2004; Cancer Cell, 9:391-403, 2006). However, it has not been known if Notch pathway blockade could target CSCs in GBM. […] In the present study, we used GBM neurospheres to examine the effects of Notch pathway blockade in GBM. […] Furthermore, overexpression of an active form of Notch2 (NICD2) increases tumor growth in vitro.

SMILES: O=S(=O)(NC1C2CCC1Cc1ccccc1C2)c1cccs1 (stereo not drawn) [GSI-18, [11-endo]-N-(5,6,7,8,9,10-hexahydro-6,9-methanobenzo[α][8]annulen-11-yl)-thiophene-2-sulfonamide]
- nestin-positive fraction (MB2): significant reduction
- growth in the number of live cells (D283Med): reduced as compared to vehicle treated controls
- growth in the number of live cells (D425Med): reduced as compared to vehicle treated controls
- growth in the number of live cells (DAOY [1]): reduced as compared to vehicle treated controls
- growth in the number of live cells (PFSK): reduced as compared to vehicle treated controls
- levels inducing increase of cleaved Caspase 3 and loss of Akt phosphorylation (Akt; DAOY medulloblastoma cells): ≥ 0.4 µM
- concentrations blocking the phosphorylation of Akt (Akt; MB cells): ≥ 0.4 µM
- xenograft formation from pretreated cells (DAOY [2]; 2 μM, 48 hours pretreatment, 500,000 viable cells injected subcutaneously): only one very small lesion formed among the four sites
- tumor formation from pretreated cells after recovery (DAOY [2]; two days of treatment, 24 hours recovery in 10% FBS without inhibitor): unable to form tumors
- behavioral or physical changes [3]: No behavioral or physical changes were noted
- CD133 expression in the whole culture [4]: significantly reduced; also recorded: reduces expression of CD133
